# Laboratory results: ChEMBL document CHEMBL1143355, “Aryl sulphonyl amides as potent agonists of the growth hormone secretagogue (ghrelin) receptor” (Bioorg Med Chem Lett, 2009)
# Experiments:
# [1] = target: Growth hormone secretagogue receptor type 1 (Homo sapiens, UniProt Q92847); test: Agonist activity at human ghrelin receptor by cell based BACMAM FLIPR assay; format: functional
# [2] = Total body clearance in Sprague-Dawley rat at 1 mg/kg, iv; format: ADME, organism-based; parameters: dose 1 mg/kg, route intravenous; conditions: in vivo
# [3] = Half life in Sprague-Dawley rat at 1 mg/kg, iv; format: ADME, organism-based; parameters: dose 1 mg/kg, route intravenous; conditions: in vivo
# [4] = Mean residence time in Sprague-Dawley rat at 1 mg/kg, iv; format: ADME, organism-based; parameters: dose 1 mg/kg, route intravenous; conditions: in vivo
# [5] = Tmax in Sprague-Dawley rat at 3 mg/kg, po; format: ADME, organism-based; parameters: dose 3 mg/kg, route oral; conditions: in vivo
# [6] = test system: Rattus norvegicus; test: AUC (0 to 6 hrs) in Sprague-Dawley rat at 3 mg/kg, po; format: ADME, organism-based, Plasma; parameters: time < 6 hr, dose 3 mg/kg, route oral; conditions: in vivo
# [7] = Volume of distribution at steady state in Sprague-Dawley rat at 1 mg/kg, iv; format: ADME, organism-based; parameters: dose 1 mg/kg, route intravenous; conditions: in vivo, read-out: Vdss
# [8] = Cmax in Sprague-Dawley rat at 3 mg/kg, po; format: ADME, organism-based; parameters: dose 3 mg/kg, route oral; conditions: in vivo
# [9] = Cmax in Sprague-Dawley rat at 1 mg/kg, iv; format: ADME, organism-based; parameters: dose 1 mg/kg, route intravenous; conditions: in vivo
# Growth hormone secretagogue receptor type 1, sequence (Q92847 whole entry): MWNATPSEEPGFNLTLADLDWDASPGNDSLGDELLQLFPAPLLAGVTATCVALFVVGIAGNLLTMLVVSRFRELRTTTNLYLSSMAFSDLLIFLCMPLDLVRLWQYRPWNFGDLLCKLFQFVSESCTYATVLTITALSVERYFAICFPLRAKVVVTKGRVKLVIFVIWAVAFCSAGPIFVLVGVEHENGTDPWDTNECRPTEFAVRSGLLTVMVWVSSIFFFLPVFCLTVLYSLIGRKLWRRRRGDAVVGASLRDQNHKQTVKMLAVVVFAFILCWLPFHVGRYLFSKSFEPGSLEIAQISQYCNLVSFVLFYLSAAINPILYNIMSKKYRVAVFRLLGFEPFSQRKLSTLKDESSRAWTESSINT
EC50 [1] [nM],Compound,other results
> 5010,N[C@H]1CCN(C(=O)[C@H]2CCCCN2S(=O)(=O)c2ccc(-c3ccccc3)cc2)C1,
316,N[C@H]1CCN(C(=O)[C@@H]2CCCCN2S(=O)(=O)c2ccc(-c3cccnc3)cc2)C1,
0.501,Cc1ccc(-c2ccc(S(=O)(=O)N3C[C@H](O)C[C@H]3C(=O)N3CC[C@@H](N)C3)cc2F)o1,
2.51,Cc1ccc(-c2ccc(S(=O)(=O)N3CCCC[C@H]3C(=O)N3C[C@@H](C)N[C@@H](C)C3)cc2F)o1,
0.0501,Cc1ccc(-c2ccc(S(=O)(=O)N3CCCC[C@H]3C(=O)N3CC[C@@H](N)C3)cc2F)o1,
0.158,Cc1ccc(-c2ccc(S(=O)(=O)N3CCCC[C@H]3C(=O)N3CC[C@H](N)C3)cc2F)o1,
15.8,Cc1ccc(-c2ccc(S(=O)(=O)N3CC[C@H]3C(=O)N3CC[C@@H](N)C3)cc2F)o1,
7.94,N[C@H]1CCN(C(=O)[C@@H]2CCCCN2S(=O)(=O)c2ccc(-c3ccccc3)cc2)C1,
15.8,N[C@@H]1CCN(C(=O)[C@@H]2CCCCN2S(=O)(=O)c2ccc(-c3ccccc3)cc2)C1,
31.6,N[C@@H]1CCN(C(=O)[C@@H]2CCCCN2S(=O)(=O)c2ccc(-c3ccco3)cc2)C1,
20,N[C@H]1CCN(C(=O)[C@@H]2CCCCN2S(=O)(=O)c2ccc(NC(=O)c3ccccc3)cc2)C1,
2,COc1cccc(C(=O)Nc2ccc(S(=O)(=O)N3CCCC[C@H]3C(=O)N3CC[C@H](N)C3)cc2)c1,
0.251,Cc1ccc(-c2ccc(S(=O)(=O)N3CCCC[C@H]3C(=O)N3CC[C@@H](N)C3)cc2)o1,
> 5010,N[C@@H]1CCN(C(=O)[C@H]2CCCCN2S(=O)(=O)c2ccc(-c3ccccc3)cc2)C1,
10,CNC1CCN(C(=O)[C@@H]2CCCCN2S(=O)(=O)c2ccc(-c3ccc(C)o3)cc2)C1 (stereo not given in full),
7.94,Cc1ccc(-c2ccc(S(=O)(=O)N3CCCC[C@H]3C(=O)N3CCCNCC3)cc2)o1,
0.316,N[C@@H]1CCN(C(=O)[C@@H]2CCCCN2S(=O)(=O)c2ccc(-c3cc(Cl)ccc3Cl)cc2)C1,
1.26,Cc1ccc(-c2ccc(S(=O)(=O)N3CCNC[C@H]3C(=O)N3CC[C@@H](N)C3)cc2)o1,
31.6,NC1CCN(C(=O)C2CCCCN2S(=O)(=O)c2ccc(-c3ccccc3)cc2)C1 (stereo not given),
5.01,Cc1ccc(-c2ccc(S(=O)(=O)N3C[C@@H](O)C[C@H]3C(=O)N3CC[C@@H](N)C3)cc2F)o1,
1,N[C@@H]1CCN(C(=O)[C@@H]2CCCCN2S(=O)(=O)c2ccc(-c3cc(F)ccc3F)cc2)C1,
0.2,Cc1ccc(-c2ccc(S(=O)(=O)N3CC[C@H](O)[C@H]3C(=O)N3CC[C@@H](N)C3)cc2F)o1,
3.98,N[C@H]1CCN(C(=O)[C@@H]2CCCCN2S(=O)(=O)c2ccc(NC(=O)c3ccccc3F)cc2)C1,
0.398,Cc1ccc(-c2ccc(S(=O)(=O)N3CCC[C@H]3C(=O)N3CC[C@@H](N)C3)cc2F)o1,clearance [2]: 25 mL/min/kg; half-life [3]: 2.4 h; MRT [4]: 2.4 h; Tmax [5]: 4 h; AUC [6]: 5 kg·min/L; Vd [7]: 3.5 L/kg; Cmax [8]: 151 nM; Cmax [9]: 762 nM
3.16,N[C@@H]1CCN(C(=O)[C@@H]2CCCCN2S(=O)(=O)c2ccc(-c3ccco3)c(F)c2)C1,
398,N[C@@H]1CCN(C(=O)[C@@H]2CCCCN2S(=O)(=O)c2ccc(Br)cc2)C1,
6.31,Cc1ccc(-c2ccc(S(=O)(=O)N3CCCC[C@H]3C(=O)N3C[C@@H](C)N[C@@H](C)C3)cc2)o1,
